Assay results published in PMC10739838, “Limited high-throughput screening compatibility of the phenuivirus cap-binding domain” (Scientific Reports, 2023).
pKd: −log10 of the molar value. “And” between values parts separate entries of the source, which are not always exact repeats. Equal entries are not always repeated. Where two headings read alike, the source gives them in different places.

How the values were obtained:
SFTSV CBD [1] = molecular target: T1, SFTSV CBD (Dabie bandavirus, UniProt I0DF35); format: binding
human eIF4E = human eIF4E (Homo sapiens, UniProt P06730); format: binding
SFTSV CBD [2] = molecular target: T1, SFTSV CBD; format: binding; remark: listed apart in the source
RVFV CBD [3] = molecular target: T2, RVFV CBD (Rift valley fever virus, UniProt P27316); details: cited from earlier work
SFTSV CBD [4] = molecular target: T1, SFTSV CBD; format: binding; remark: listed apart in the source
SFTSV CBD [5] = molecular target: T1, SFTSV CBD; details: cited from earlier work
SFTSV CBD [6] = molecular target: T1, SFTSV CBD; details: cited from earlier work; remark: listed apart in the source
PB2 CBD = PB2 CBD (Influenza A virus, UniProt P31345)
SFTSV CBD [7] = molecular target: T1, SFTSV CBD; format: binding; remark: listed apart in the source
RVFV CBD [8] = molecular target: T2, RVFV CBD; format: binding

Chain of human eIF4E (P06730 whole entry): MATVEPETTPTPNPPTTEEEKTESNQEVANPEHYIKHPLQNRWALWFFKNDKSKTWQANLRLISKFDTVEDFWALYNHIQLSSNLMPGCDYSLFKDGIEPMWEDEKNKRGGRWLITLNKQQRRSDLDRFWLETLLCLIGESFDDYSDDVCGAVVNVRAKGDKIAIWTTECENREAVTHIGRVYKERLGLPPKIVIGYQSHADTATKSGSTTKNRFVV
T2 sequence (P27316 1706-1822 limits assumed): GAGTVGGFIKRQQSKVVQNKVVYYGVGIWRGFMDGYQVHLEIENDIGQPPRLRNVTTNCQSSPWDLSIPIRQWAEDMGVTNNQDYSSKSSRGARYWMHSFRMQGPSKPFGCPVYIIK
T1 sequence (I0DF35 1695-1810 limits assumed): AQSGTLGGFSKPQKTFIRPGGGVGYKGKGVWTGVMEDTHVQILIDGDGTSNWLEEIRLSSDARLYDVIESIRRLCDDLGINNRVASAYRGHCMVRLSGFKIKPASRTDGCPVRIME
Chain of PB2 CBD (P31345 318-483 limits assumed): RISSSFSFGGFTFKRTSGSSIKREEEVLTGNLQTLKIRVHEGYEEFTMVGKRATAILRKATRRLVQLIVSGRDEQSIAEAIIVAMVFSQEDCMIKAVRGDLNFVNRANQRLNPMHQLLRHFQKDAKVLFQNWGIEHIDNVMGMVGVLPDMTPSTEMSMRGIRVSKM

Structure (SMILES) | pKd (SFTSV CBD [1]) | pKd (SFTSV CBD [2]) | Effect on thermal stability of the protein (RVFV CBD [3]) | Effect on thermal stability of the protein (SFTSV CBD [5]) | also measured
Nc1ncnc2c1ncn2[C@@H]1O[C@H](COP(=O)(O)OP(=O)(O)OP(=O)(O)O)[C@@H](O)[C@H]1O [ATP] | 1.70 | – | – | – | –
CC[N+]1=C(/C=C/C=C/C=C2/N(CCCCCC(=O)NCCNC(=O)O[C@@H]3[C@H](O)[C@@H](COP(=O)(O)OP(=O)(O)OP(=O)([O-])O)O[C@H]3n3c[n+](C)c4c(=O)[nH]c(N)nc43)c3ccc(S(=O)(=O)O)cc3C2(C)C)C(C)(C)c2cc(S(=O)(=O)[O-])ccc21 [EDA-m^7GTP-Cy5] | – | 4.26 and 4.49 and 4.44 | – | – | pKd (human eIF4E): 7.44 and 7.48 and 7.55
Nc1nc2c(ncn2[C@@H]2O[C@H](COP(=O)(O)OP(=O)(O)OP(=O)(O)O)[C@@H](O)[C@H]2O)c(=O)[nH]1 [GTP] | 1.70 | – | not | not | SPR signal on injection of increasing concentrations (SFTSV CBD [4]): did not result in a dose-dependent signal increase
CC[N+]1=C(/C=C/C=C/C=C2/N(CCCCCC(=O)NCCOCCOCCOCCOCCC(=O)Nc3ccc(OP(=O)([O-])OP(=O)(O)OP(=O)(O)OC[C@H]4O[C@@H](n5c[n+](C)c6c(=O)[nH]c(N)nc65)[C@H](O)[C@@H]4O)cc3)c3ccc(S(=O)(=O)O)cc3C2(C)C)C(C)(C)c2cc(S(=O)(=O)[O-])ccc21 [m^7GTP-γ-aminophenyl-PEG4-Cy5] | – | 3.97 | – | – | –
Cn1c[n+]([C@@H]2O[C@H](COP(=O)([O-])OP(=O)(O)OP(=O)(O)O)[C@@H](O)[C@H]2O)c2nc(N)[nH]c(=O)c21 [m^7GTP] | ~2.22 and 2.21 and 1.97 | – | higher thermal stability | higher thermal stability | pKd (SFTSV CBD [6]): 3.86; pKd (PB2 CBD): 5.55; pKd (SFTSV CBD [4]): ~3.00
O=C(O)[C@H]1C2CCC(CC2)[C@@H]1Nc1nc(-c2c[nH]c3ncc(F)cc23)ncc1F [pimodivir] | – | – | – | – | Effect on thermal stability of the protein (SFTSV CBD [7]): destabilization of the protein; Effect on thermal stability of the protein (RVFV CBD [8]): destabilization of the protein
